Data taken from US20250177405A1, “METHODS OF TREATING NEUROLOGICAL AND CARDIOVASCULAR CONDITIONS” (ASTROCYTE PHARMACEUTICALS, INC., priority 2021, published 2025).
Like-named read-outs stand apart in the source and are kept apart here.

Tests used:
[1] = I-1 plasma and CSF concentrations during bolus/infusion regimen in tMCAO efficacy study; type: in vivo, Macaca fascicularis; conditions: for predicted I-1 [Plasma]: 22 h infusion; for Measured I-1 [CSF] / measured I-1 [Plasma]: 22 h, n = 4
Protocol: (§1) Macaques received a bolus dose of vehicle (40% PEG400 in 0.9% saline) or I-1 into a saphenous vein 2 h after occlusion (2 h prior to restoration of MCA blood flow), followed immediately by a 22 h intravenous infusion. This dosing regimen was designed to rapidly achieve and maintain pre-determined plasma and cerebrospinal fluid (CSF) steady-state concentrations of I-1 based on its pharmacokinetics previously determined in näive and MCA occluded macaques (Tables A-C below).
During MRI, vehicle or I-1 were infused into the saphenous vein via a syringe pump (TOP5500E, TOP Corp., Tokyo, Japan). Infusion following MRI was maintained via a portable, programmable IPRECIO® Dual infusion pump (DMP-100; Primetech Corp., Tokyo, Japan) ported into a jugular venous line, both being secured in a jacket. Methods for pharmacokinetic sampling and bioanalytical analysis of plasma and CSF are described below.
Blood samples (1.0 mL) were withdrawn into heparinized tubes from either the opposite cephalic or the femoral vein at 3, 6, 24, 48, 72 hours and 5 days post-occlusion. Heparinized blood was centrifuged at 4° C. at 1,800×g for 10 min. In the same animals, 0.3-0.5 mL of cerebrospinal fluid (CSF) was withdrawn at 6 and 24 hours post-occlusion. Macaques were sedated with ketamine (10 mg/kg, i.m.), CSF was collected via puncture of the cisterna magna. Plasma and CSF samples were flash frozen in liquid nitrogen and then stored at −70 C until shipment for processing. Samples were shipped on dry ice. Plasma and CSF concentrations of I-1 were determined by LC/MS/MS utilizing standard curves (performed at the Department of Bio Research, Kamakura Techno-Science, Inc. Kanagawa, Japan). Lower limits of quantitation for compound I-1 were 1.0 ng/mL and 0.1 ng/mL for plasma and CSF, respectively.

[2] = pharmacokinetics of I-1 after intravenous bolus in normal and tMCAO nonhuman primates; type: in vivo, nonhuman primate; conditions: for C0 / clearance / half-life / Vd: monkey, plasma, iv, 0.5 mg/kg, intravenous bolus 0.5 mg/kg; for Vd: read-out: Vdss
[3] = plasma and brain unbound fractions of I-1 in nonhuman primates; type: in vitro ADME; conditions: nonhuman primate, Normal NHP (n = 3)
[4] = pre-efficacy pharmacokinetic study, intravenous bolus/constant rate infusion in tMCAO cynomolgus monkeys; type: in vivo, cynomolgus monkey; conditions: tMCAO (n = 1); for Kp at 22 h: cynomolgus monkey, CSF/plasma, intravenous, read-out: CSF/Plasma At 22-hour End of Dosing
Protocol: as §1
We then proceeded to our key preclinical stroke efficacy model in nonhuman primates. Pre-efficacy pharmacokinetic studies obtained plasma and CSF pharmacokinetic data. The I-1 CSF concentrations were combined with receptor affinity data to estimate receptor occupancy, and the combination of CSF concentrations and associated receptor occupancies were used to set dose regimens for the efficacy study.

[5] = physiological parameter assessment during tMCAO study; type: in vivo, Macaca fascicularis
Protocol: Body weight, core body temperature, mean arterial blood pressure (MABP), heart rate, pO2, pCO2, sO2 and blood pH were assessed prior to and after tMCAO at designated intervals in relation to reported normal physiological ranges for each parameter (references 22-23).

[6] = system: cynomolgus monkey model of transient middle cerebral artery occlusion (tMCAO); assay: Neurologic Deficit Score (NDS) after tMCAO; type: in vivo, Macaca fascicularis; conditions: study Days 1 to 5, I-1-treated composite versus vehicle, p=0.11
From the text: Twenty-four hours and 5 days after occlusion, neurologic deficits were scored using the Neurologic Deficits Score (NDS) as described elsewhere (reference 25). The NDS was considered as a secondary efficacy endpoint.

brain A1R/A3R [7] = assay: estimated brain receptor occupancy of I-1 in nonhuman primate stroke study; type: in vivo
Protocol: Cerebrospinal fluid drug concentration is an established proxy for unbound drug brain concentration that interacts with central receptor targets (references 46, 47). The unbound brain concentrations and resulting brain receptor occupancy at the A1R and A3R can be estimated using receptor affinity data and simple mass action equations (references 48, 49). […] Accordingly, during the 22 h infusion of I-1, sufficient CSF concentrations were available to provide coverage of central A1R and A3R in the macaque.
(§2) Receptor occupancy is a mass action relationship:
(§3) The percentage of a receptor occupied by an agonist or antagonist is a function of the drug concentration and the drug affinity for the receptor target. The challenge is that drug concentrations at the target site (in this case, brain, and CSF) can vary by species, as can affinity for the drug target. Affinity of I-1 for its receptor target can vary by as much as 5-fold between species. Accordingly, for each species, it is necessary to determine the I-1 affinity for its target as well as the concentration of I-1 at each administered dose in a relevant matrix.
We then proceeded to our key preclinical stroke efficacy model in nonhuman primates. Pre-efficacy pharmacokinetic studies obtained plasma and CSF pharmacokinetic data. […]

brain A1R/A3R [8] = assay: estimated brain receptor occupancy of I-1 in rodent efficacy studies; type: in vivo; conditions: mouse and rat efficacy models, from brain unbound drug concentrations
From the text: as §2, §3
In our rodent mouse and rat efficacy studies, we were able to directly determine brain unbound drug concentrations at efficacious doses. In those efficacy models, the estimated receptor occupancies associated with efficacy were around 1% or less.

brain A1R/A3R [9] = assay: estimated brain receptor occupancy of I-1 in neonatal pig efficacy studies; type: in vivo
From the text: as §2, §3
Using this receptor occupancy estimate, we advanced to studies in neonatal pigs, targeting doses that would yield unbound brain and CSF concentrations that would provide a similar receptor occupancy to that associated with efficacy in the rodent models. In the pig, we had the advantage of conducting pharmacokinetic studies involving CSF collection, brain equilibrium dialysis to directly determine brain unbound extracellular fluid concentrations, plasma concentrations and finally total brain concentrations. […] This was a key study to validate the use of I-1 CSF concentrations to estimate brain receptor occupancy. In the pig efficacy studies, we achieved efficacy at estimated receptor occupancies of around 2%.

[10] = High dose group, 5.2 mg/kg, 2.8 mg/kg/h, mean ± SEM
[11] = Low dose group, 0.47 mg/kg, 0.25 mg/kg/h, mean ± SEM
[12] = Mid dose group, 1.7 mg/kg, 0.9 mg/kg/h, mean ± SEM
[13] = bolus 0.11 mg/kg / infusion 0.0582 mg/kg/hr
[14] = bolus 1.7 mg/kg / infusion 0.9 mg/kg/hr
[15] = bolus 5.2 mg/kg / infusion 2.76 mg/kg/hr

With `CSc1nc(N)c2ncn([C@H]3C(O)C(O)[C@]4(CO)C[C@H]34)c2n1` (stereo in doubt) [Compound I-1] the “plasma I-1 after end of infusion” value ([1]; 24 h following termination of Mid and High dose infusions) was “Measurable concentrations”, the “predicted I-1 [Plasma]” value ([1]; High dose group, 5.2 mg/kg bolus, 2.8 mg/kg/h) was 1660 ng/mL and the “Measured I-1 [CSF]” value [1, 10] was 108 ± 35 ng/mL. The “measured I-1 [Plasma]” value [1, 10] was 1127 ± 246 ng/mL, the “predicted I-1 [Plasma]” value ([1]; Low dose group, 0.47 mg/kg bolus, 0.25 mg/kg/h) was 150 ng/mL and the “Measured I-1 [CSF]” value [1, 11] was 8.8 ± 2.6 ng/mL. The “measured I-1 [Plasma]” value [1, 11] was 186 ± 24 ng/mL, the “predicted I-1 [Plasma]” value ([1]; Mid dose group, 1.7 mg/kg bolus, 0.9 mg/kg/h) was 540 ng/mL and the “Measured I-1 [CSF]” value [1, 12] was 16.8 ± 5.7 ng/mL. The “measured I-1 [Plasma]” value [1, 12] was 483 ± 23 ng/mL, the “predicted I-1 [Plasma]” value ([1]; Very Low dose group, 0.11 mg/kg bolus, 0.06 mg/kg/h) was 35 ng/mL and the “measured I-1 [Plasma]” value ([1]; Very Low dose group, 0.11 mg/kg, 0.06 mg/kg/h, mean ± SEM of average over 22-hour infusion) was 32 ± 11 ng/mL. The “Measured I-1 [CSF]” value ([1]; Very Low dose group, 0.11 mg/kg, 0.06 mg/kg/h, mean ± SEM) was 2.1 ± 0.4 ng/mL, the “average plasma and CSF concentrations relative to targets” value ([1]; combined bolus/infusion regimen, all dose levels) was ≤ 2 fold and the plasma/CSF ratio ([1]; correlation of I-1 plasma and CSF concentrations, FIG. 5C) was “approximately 10”. The “I-1 plasma concentrations after single intravenous bolus” value ([2]; 8 h post-dose) was “below bioanalytical limits of quantitation”, the C0 ([2]; Normal NHP (n = 3)) was 329 ng/mL and the clearance ([2]; Normal NHP (n = 3)) was 29 mL/min/kg. For the same molecule, the half-life ([2]; Normal NHP (n = 3)) was 1.3 h, the Vd ([2]; Normal NHP (n = 3)) was 3.1 L/kg and the C0 ([2]; tMCAO NHP (n = 1)) was 544 ng/mL. The clearance ([2]; tMCAO NHP (n = 1)) was 28 mL/min/kg, the half-life ([2]; tMCAO NHP (n = 1)) was 1.5 h and the Vd ([2]; tMCAO NHP (n = 1)) was 3 L/kg. It also gave a fraction unbound ([3]; brain, read-out: Brain Unbound Fraction) of 0.56 ± 0.05, a fraction unbound ([3]; plasma, read-out: Plasma Unbound Fraction) of 0.26 ± 0.05 and a Kp at 22 h [4, 13] of 0.094. The Kp at 22 h [4, 14] was 0.084, the Kp at 22 h [4, 15] was 0.065 and the “Actual Time-Averaged Steady-State [Plasma]” value [4, 13] was 25 ng/mL. The “Predicted Steady-State [Plasma]” value [4, 13] was 35 ng/mL, the “Actual Time-Averaged Steady-State [Plasma]” value [4, 14] was 363 ng/mL and the “Predicted Steady-State [Plasma]” value [4, 14] was 540 ng/mL. For the same molecule, the “Actual Time-Averaged Steady-State [Plasma]” value [4, 15] was 1812 ng/mL, the “Predicted Steady-State [Plasma]” value [4, 15] was 1660 ng/mL and the “physiological parameters versus vehicle-treated group” value ([5]; baseline and during the study period) was “no clinically relevant differences”. For the same molecule, the “MABP or heart rate” value ([5]; systemic I-1 administration, tMCAO macaques) was “did not result in significant alterations”, the “neurological function (NDS) change” value [6] was “improved but statistically non-significant” and the “estimated receptor occupancy associated with significant efficacy” value (brain A1R/A3R [7]; NHP stroke study, Low, Mid, High Doses) was 1-15%. The “estimated receptor occupancy at which efficacy started” value (brain A1R/A3R [7]; monkey) was ~34%, the “estimated receptor occupancies associated with efficacy” value (brain A1R/A3R [8]) was ≤ 1% and the “estimated receptor occupancies at which efficacy was achieved” value (brain A1R/A3R [9]) was “around 2%”.
